Here are results for 16 molecules from ChEMBL document CHEMBL2069241, “Isosteric replacements for benzothiazoles and optimisation to potent Cathepsin K inhibitors free from hERG channel inhibition” (Bioorg Med Chem Lett, 2012).

The nature of data set [1]: physchem. Particulars: buffer, pH 7.4.
Data set [2] can be described thus: physchem. The note with it: buffer, pH 7.4. The source holds these as a separate data set.
Data set [3] is described as follows: Volume of distribution at steady state in Han Wistar rat at 1 mg/kg, iv and 2 mg/kg, po. The class given is ADME, organism-based. Particulars: in vivo, read-out: Vdss.
Data set [4] can be described thus: Oral bioavailability in Han Wistar rat at 2 mg/kg. Format: ADME, organism-based. The note with it: in vivo.
Data set [5] can be described thus: Volume of distribution at steady state in beagle dog at 1 mg/kg, iv and 1 mg/kg, po. The class given is ADME, organism-based, Canis lupus familiaris. The note with it: in vivo, read-out: Vdss.
The nature of data set [6]: Oral bioavailability in beagle dog at 1 mg/kg. Format: ADME, organism-based, Canis lupus familiaris. The note with it: in vivo.

Values after ≈ are worked out from the molar mass of the structure shown. A value given as a limit tells only on which side of the number the result lay.

As for `N#CC1(NC(=O)[C@@H]2CCCC[C@H]2C(=O)N2CCN(c3nc(-c4ccccc4)cs3)CC2)CC1`, the log distribution coefficient (logD) in data set [1] is 3.5. This molecule also had a solubility in data set [2] of 96 µM (≈ 44.5 µg/mL).

Consider `N#CC1(NC(=O)[C@@H]2CCCC[C@H]2C(=O)N2CCN(c3nc4ccccc4s3)CC2)CC1`, for which the Vd in data set [3] and in data set [5] was 1.5 L/kg in each case. Besides, the bioavailability in data set [4] came to 20%; in data set [6], 78%. Besides, the logD in data set [1] was found to be 2.6. Moreover, in data set [2], the solubility was determined as 1000 µM (≈ 438 µg/mL).

`N#CC1(NC(=O)[C@@H]2CCCC[C@H]2C(=O)N2CCN(c3nccs3)CC2)CC1`: the logD in data set [1] turned out to be 1.3. Further, the solubility in data set [2] was determined as 3100 µM (≈ 1200 µg/mL).

As for `CC(C)(C)c1csc(N2CCN(C(=O)[C@@H]3CCCC[C@H]3C(=O)NC3(C#N)CC3)CC2)n1`, the logD in data set [1] worked out at 3.3. In addition, in data set [2], the solubility stood at 280 µM (≈ 124 µg/mL).

Molecule `N#CC1(NC(=O)[C@@H]2CCCC[C@H]2C(=O)N2CCN(c3nc(C(F)(F)F)cs3)CC2)CC1` gave a logD in data set [1] of 2.4.

On to `Cc1sc(N2CCN(C(=O)[C@@H]3CCCC[C@H]3C(=O)NC3(C#N)CC3)CC2)nc1C(F)(F)F`, for which, in data set [1], the logD came out at 2.9.

Turning to `N#CC1(NC(=O)[C@@H]2CCCC[C@H]2C(=O)N2CCN(c3nc(C(F)(F)F)c(Cl)s3)CC2)CC1`, the logD in data set [1] stood at 3.4.

Turning to `N#Cc1cnc(N2CCN(C(=O)[C@@H]3CCCC[C@H]3C(=O)NC3(C#N)CC3)CC2)s1`, in data set [1], the logD was found to be 1.2.

For `CS(=O)(=O)c1ccc2nc(N3CCN(C(=O)[C@@H]4CCCC[C@H]4C(=O)NC4(C#N)CC4)CC3)sc2c1`, the Vd in data set [3] was found to be 0.54 L/kg. In data set [4], the bioavailability came to 3.3%. Besides, the logD in data set [1] stood at 1.5.

In data set [1], `CC(C)(C#N)c1cnc(N2CCN(C(=O)[C@@H]3CCCC[C@H]3C(=O)NC3(C#N)CC3)CC2)s1` had a logD of 1.9. In data set [2], this molecule yielded a solubility of 2600 µM (≈ 1180 µg/mL).

Regarding `N#CC1(NC(=O)[C@@H]2CCCC[C@H]2C(=O)N2CCN(c3nc4ccncc4s3)CC2)CC1`, in data set [1], the log distribution coefficient (logD) amounted to 1.6. The same molecule gave a solubility in data set [2] of over 1600 µM.

With `N#CC1(NC(=O)[C@@H]2CCCC[C@H]2C(=O)N2CCN(c3nc4cnccc4s3)CC2)CC1`, the Vd in data set [3] came to 0.8 L/kg. Further, the bioavailability in data set [4] worked out at 17%. In data set [1], the logD amounted to 1.7. Besides, the solubility in data set [2] was over 1500 µM.

`N#CC1(NC(=O)[C@@H]2CCCC[C@H]2C(=O)N2CCN(c3nc4ncccc4s3)CC2)CC1`: the logD in data set [1] was 1.4. The molecule also returned a solubility in data set [2] of over 2000 µM.

With `N#CC1(NC(=O)[C@@H]2CCCC[C@H]2C(=O)N2CCN(c3nc4c(s3)CCC4)CC2)CC1`, in data set [1], the logD was over 3.

As to `N#CC1(NC(=O)[C@@H]2CCCC[C@H]2C(=O)N2CCN(c3nc4c(s3)COCC4)CC2)CC1`, the Vd in data set [3] is 1.3 L/kg. Further, the bioavailability in data set [4] is 33%. The logD in data set [1] stood at 1.4. The molecule further came in with a solubility in data set [2] of over 3600 µM.

Turning to `CC1(C)COCc2sc(N3CCN(C(=O)[C@@H]4CCCC[C@H]4C(=O)NC4(C#N)CC4)CC3)nc21`, the logD in data set [1] was found to be 2.4. In addition, the concentration in solution in data set [2] (solubility) came to 1700 µM (≈ 802 µg/mL).

In general, logD refers to the decadic logarithm of the distribution of all forms, ionised or not, between an organic phase and buffer at a given pH. Read a low logD as a more hydrophilic compound. A word on the solubility: it is how much of the substance goes into solution per volume. Low values mean a poorly soluble substance, high ones a readily soluble substance. One may read the bioavailability as dose-corrected exposure relative to a reference, in per cent. Low readings indicate poor availability, high ones good availability.
